Patent US20140303092A1 (CHIMERIX, INC., priority 2011, published 2014)

Experiment: Study HDP-CDV-201: safety and tolerability (adverse events, laboratory abnormalities, discontinuations)
Assay type: in vivo, human (adult allogeneic HSCT recipients)
Details: for Subjects with Neutrophils <0.5 GI/L / Subjects with Neutrophils <1.0-0.5 GI/L / Subjects with Neutrophils <1.5-1 GI/L / Subjects with Neutrophils <LLN-1.5 GI/L / Subjects with Platelets <25 GI/L / Subjects with Platelets <50-25 GI/L / Subjects with Platelets <75-50 GI/L / Subjects with Platelets <LLN-75 GI/L / Subjects with Serum Creatinine >1 × ULN-[…] ULN / Subjects with Serum Creatinine >3 × ULN-6 × ULN / Subjects with Serum Creatinine >6 × ULN / Subjects with Serum Creatinine >[…] ULN-3 × ULN / Subjects with WBC <1 GI/L / Subjects with WBC <2-1 GI/L / Subjects with WBC <3-2 GI/L / Subjects with WBC <LLN-3 GI/L / Subjects with Hemoglobin <6.5 g/dL / Subjects with Hemoglobin <8-6.5 g/dL / Subjects with Hemoglobin <10-8 g/dL / Subjects with Hemoglobin <LLN-10 g/dL: any time during therapy; for Subjects Receiving Aldesleukin / Subjects Receiving Blood and Related Products / Subjects Receiving Blood, Whole / Subjects Receiving Filgrastim / Subjects Receiving Granulocyte Colony Stimulating Factor / Subjects Receiving Pegfilgrastim / Subjects Receiving Platelets / Subjects Receiving Red Blood Cells / Subjects Receiving Red Blood Cells, Concentrated / Subjects Receiving Sargramostim: during the Treatment Period; for Cause of death: individual subjects who died
Description: Clinical Studies of HDP-CDV were performed and described in detail in the following Examples. For example, HDP-CDV-201 is a placebo-controlled, dose-escalating trial in HSCT CMV (R+) recipients, evaluating the ability of HDP-CDV to prevent or control CMV infection was carried out. Five cohorts were established in which participants or subjects received either placebo or the HDP-CDV orally, in doses ranging from 40 mg weekly (QW) to 200 mg twice weekly (BIW). Subjects who were post-HSCT were enrolled at the time of engraftment and randomized to HDP-CDV or placebo (3 to 1 ratio) and received blinded therapy until approximately 100 day post-transplantation. HDP-CDV doses were 40 mg QW, 100 mg QW, 200 mg QW, 200 mg BIW and 100 mg BIW. Escalation to the next dose was decided by the data monitoring committee after review of the safety data from the previous Cohort. Subjects who developed CMV disease or CMV infection requiring pre-emptive therapy with local standard of care were discontinued from blinded therapy and followed for 4 weeks. Subjects who completed treatment with blinded therapy were followed for 8 weeks post-therapy.
Data from Study HDP-CDV-201 also provided characterization of the safety and tolerability profile of HDP-CDV when administered for the prevention or control of CMV infection in high risk (R^+) post-HSCT adult subjects.
The Safety population (SAFETY) included all randomized subjects who took at least one dose of study treatment. This population was used to summarize safety outcomes based on the treatment actually received, in cases where a subject was treated contrary to the randomization schedule.
The safety and tolerability profile of HDP-CDV, including subject demographics and Baseline characteristics; the AE profile; and laboratory abnormalities of interest were analyzed in the cohorts followed in this investigation.
Subjects completing the treatment period received a full course of study medication; those completing the entire study attended visits through 8 weeks of follow up. Subjects who discontinued treatment may have done so for protocol specified reasons (e.g. development of clinically significant CMV infection requiring preemptive treatment with excluded anti-CMV medications) or for other reasons (e.g., withdrawal, adverse events, loss to follow-up). The disposition of subjects in Study HDP-CDV-201 during the double-blind, placebo-controlled treatment period (through Week 11) is listed by dosing Cohort in TABLE 23.
Adverse events were examined by severity to ensure that all safety signals were identified in this study population. Because of the frequency of events in HSCT recipients, particular attention was given to evaluation of Grade 3 […], 4 (severe), and 5 (fatal) adverse events.
Only those preferred terms for which at least one Grade 3 or higher event was experienced in any treatment group are listed. Cytomegalovirus-related AEs are excluded from this analysis.
HDP-CDV is a lipid conjugate of CDV. Because CDV is known to have adverse effects on renal function and bone marrow, decreased GFR and persistent neutropenia were identified as AEs of special interest. Key renal and hematological (TABLE 30) laboratory parameters were measured and listed below by Study HDP-CDV-201 treatment groups. TABLE 30 includes abnormal levels of serum creatinine, neutrophils, platelets, WBCs, and hemoglobin and includes data at Screening and during the treatment period.
A common metric for unit based dosing of medications is by weight (mg/kg). When the distribution of weights was examined for all subjects participating in the study, the median was 78 kg and the lower 25th percentile weight was approximately 65 kg, which translates to a cut-off of ˜3 mg/kg for a 200 mg total weekly dose. Based upon this approach, a cut-off of 3 mg/kg was used to assess the frequency of diarrhea and associated GI AEs reported for the subjects in Cohorts 3 or 4a (TABLE 40).

Structure (SMILES): CCCCCCCCCCCCCCCCOCCCOP(=O)(O)COC(CO)Cn1ccc(N)nc1=O (stereo not shown) [HDP-CDV]
- Subjects with Neutrophils <0.5 GI/L (100 mg QW): 3 (11.1%)
- Subjects with Neutrophils <1.0-0.5 GI/L (100 mg QW): 2 (7.4%)
- Subjects with Neutrophils <1.5-1 GI/L (100 mg QW): 9 (33.3%)
- Subjects with Neutrophils <LLN-1.5 GI/L (100 mg QW): 1 (3.7%)
- Subjects with Platelets <25 GI/L (100 mg QW): 4 (14.8%)
- Subjects with Platelets <50-25 GI/L (100 mg QW): 6 (22.2%)
- Subjects with Platelets <75-50 GI/L (100 mg QW): 6 (22.2%)
- Subjects with Platelets <LLN-75 GI/L (100 mg QW): 7 (25.9%)
- Subjects with Serum Creatinine >1 × ULN-[…] ULN (100 mg QW): 16 (59.3%)
- Subjects with Serum Creatinine >3 × ULN-6 × ULN (100 mg QW): 0
- Subjects with Serum Creatinine >6 × ULN (100 mg QW): 0
- Subjects with Serum Creatinine >[…] ULN-3 × ULN (100 mg QW): 5 (18.5%)
- Subjects with WBC <1 GI/L (100 mg QW): 3 (11.1%)
- Subjects with WBC <2-1 GI/L (100 mg QW): 4 (14.8%)
- Subjects with WBC <3-2 GI/L (100 mg QW): 6 (22.2%)
- Subjects with WBC <LLN-3 GI/L (100 mg QW): 4 (14.8%)
- Subjects with Hemoglobin <6.5 g/dL (200 mg BIW): 0
- Subjects with Hemoglobin <8-6.5 g/dL (200 mg BIW): 2 (7.1%)
- Subjects with Hemoglobin <10-8 g/dL (200 mg BIW): 12 (42.9%)
- Subjects with Hemoglobin <LLN-10 g/dL (200 mg BIW): 12 (42.9%)
- Subjects with Neutrophils <0.5 GI/L (200 mg BIW): 0
- Subjects with Neutrophils <1.0-0.5 GI/L (200 mg BIW): 4 (14.3%)
- Subjects with Neutrophils <1.5-1 GI/L (200 mg BIW): 7 (25.0%)
- Subjects with Neutrophils <LLN-1.5 GI/L (200 mg BIW): 3 (10.7%)
- Subjects with Platelets <25 GI/L (200 mg BIW): 8 (28.6%)
- Subjects with Platelets <50-25 GI/L (200 mg BIW): 8 (28.6%)
- Subjects with Platelets <75-50 GI/L (200 mg BIW): 2 (7.1%)
- Subjects with Platelets <LLN-75 GI/L (200 mg BIW): 6 (21.4%)
- Subjects with Serum Creatinine >1 × ULN-[…] ULN (200 mg BIW): 11 (37.9%)
- Subjects with Serum Creatinine >3 × ULN-6 × ULN (200 mg BIW): 0
- Subjects with Serum Creatinine >6 × ULN (200 mg BIW): 0
- Subjects with Serum Creatinine >[…] ULN-3 × ULN (200 mg BIW): 1 (3.4%)
- Subjects with WBC <1 GI/L (200 mg BIW): 2 (7.1%)
- Subjects with WBC <2-1 GI/L (200 mg BIW): 5 (17.9%)
- Subjects with WBC <3-2 GI/L (200 mg BIW): 9 (32.1%)
- Subjects with WBC <LLN-3 GI/L (200 mg BIW): 3 (10.7%)
- Subjects with Hemoglobin <6.5 g/dL (200 mg QW): 0
- Subjects with Hemoglobin <8-6.5 g/dL (200 mg QW): 5 (13.2%)
- Subjects with Hemoglobin <10-8 g/dL (200 mg QW): 19 (50.0%)
- Subjects with Hemoglobin <LLN-10 g/dL (200 mg QW): 13 (34.2%)
- Subjects with Neutrophils <0.5 GI/L (200 mg QW): 2 (5.3%)
- Subjects with Neutrophils <1.0-0.5 GI/L (200 mg QW): 7 (18.4%)
- Subjects with Neutrophils <1.5-1 GI/L (200 mg QW): 11 (28.9%)
- Subjects with Neutrophils <LLN-1.5 GI/L (200 mg QW): 1 (2.6%)
- Subjects with Platelets <25 GI/L (200 mg QW): 7 (18.4%)
- Subjects with Platelets <50-25 GI/L (200 mg QW): 13 (34.2%)
- Subjects with Platelets <75-50 GI/L (200 mg QW): 7 (18.4%)
- Subjects with Platelets <LLN-75 GI/L (200 mg QW): 7 (18.4%)
- Subjects with Serum Creatinine >1 × ULN-[…] ULN (200 mg QW): 16 (42.1%)
- Subjects with Serum Creatinine >3 × ULN-6 × ULN (200 mg QW): 0
- Subjects with Serum Creatinine >6 × ULN (200 mg QW): 0
- Subjects with Serum Creatinine >[…] ULN-3 × ULN (200 mg QW): 2 (5.3%)
- Subjects with WBC <1 GI/L (200 mg QW): 1 (2.6%)
- Subjects with WBC <2-1 GI/L (200 mg QW): 13 (34.2%)
- Subjects with WBC <3-2 GI/L (200 mg QW): 7 (18.4%)
- Subjects with WBC <LLN-3 GI/L (200 mg QW): 6 (15.8%)
- drug induced liver injury (DILI) (course of the study): No case of drug induced liver injury (DILI) clearly attributable to HDP-CDV
- Subjects Receiving Aldesleukin (40 mg QW): 0
- Subjects Receiving Blood and Related Products (40 mg QW): 1 (4.0%)
- Subjects Receiving Blood, Whole (40 mg QW): 0
- Subjects Receiving Filgrastim (40 mg QW): 4 (16.0%)
- Subjects Receiving Granulocyte Colony Stimulating Factor (40 mg QW): 0
- Subjects Receiving Pegfilgrastim (40 mg QW): 0
- Subjects Receiving Platelets (40 mg QW): 5 (20.0%)
- Subjects Receiving Red Blood Cells (40 mg QW): 0
- Subjects Receiving Red Blood Cells, Concentrated (40 mg QW): 2 (8.0%)
- Subjects Receiving Sargramostim (40 mg QW): 0
- Subjects Receiving Aldesleukin (100 mg BIW): 0
- Subjects Receiving Blood and Related Products (100 mg BIW): 0
- Subjects Receiving Blood, Whole (100 mg BIW): 0
- Subjects Receiving Filgrastim (100 mg BIW): 11 (22.0%)
- Subjects Receiving Granulocyte Colony Stimulating Factor (100 mg BIW): 0
- Subjects Receiving Pegfilgrastim (100 mg BIW): 2 (4.0%)
- Subjects Receiving Platelets (100 mg BIW): 6 (12.0%)
- Subjects Receiving Red Blood Cells (100 mg BIW): 3 (6.0%)
- Subjects Receiving Red Blood Cells, Concentrated (100 mg BIW): 6 (12.0%)
- Subjects Receiving Sargramostim (100 mg BIW): 0
- Subjects Receiving Aldesleukin (100 mg QW): 0
- Subjects Receiving Blood and Related Products (100 mg QW): 0
- Subjects Receiving Blood, Whole (100 mg QW): 1 (3.7%)
- Subjects Receiving Filgrastim (100 mg QW): 4 (14.8%)
- Subjects Receiving Granulocyte Colony Stimulating Factor (100 mg QW): 0
- Subjects Receiving Pegfilgrastim (100 mg QW): 0
- Subjects Receiving Platelets (100 mg QW): 3 (11.1%)
- Subjects Receiving Red Blood Cells (100 mg QW): 2 (7.4%)
- Subjects Receiving Red Blood Cells, Concentrated (100 mg QW): 3 (11.1%)
- Subjects Receiving Sargramostim (100 mg QW): 0
- Subjects Receiving Aldesleukin (200 mg BIW): 0
- Subjects Receiving Blood and Related Products (200 mg BIW): 0
- Subjects Receiving Blood, Whole (200 mg BIW): 0
- Subjects Receiving Filgrastim (200 mg BIW): 5 (16.7%)
- Subjects Receiving Granulocyte Colony Stimulating Factor (200 mg BIW): 1 (3.3%)
- Subjects Receiving Pegfilgrastim (200 mg BIW): 1 (3.3%)
- Subjects Receiving Platelets (200 mg BIW): 6 (20.0%)
- Subjects Receiving Red Blood Cells (200 mg BIW): 4 (13.3%)
- Subjects Receiving Red Blood Cells, Concentrated (200 mg BIW): 5 (16.7%)
- Subjects Receiving Sargramostim (200 mg BIW): 0
- Subjects Receiving Aldesleukin (200 mg QW): 0
- Subjects Receiving Blood and Related Products (200 mg QW): 0
- Subjects Receiving Blood, Whole (200 mg QW): 0
- Subjects Receiving Filgrastim (200 mg QW): 11 (28.2%)
- Subjects Receiving Granulocyte Colony Stimulating Factor (200 mg QW): 1 (2.6%)
- Subjects Receiving Pegfilgrastim (200 mg QW): 1 (2.6%)
- Subjects Receiving Platelets (200 mg QW): 6 (15.4%)
- Subjects Receiving Red Blood Cells (200 mg QW): 3 (7.7%)
- Subjects Receiving Red Blood Cells, Concentrated (200 mg QW): 6 (15.4%)
- Subjects Receiving Sargramostim (200 mg QW): 1 (2.6%)
- relation of deaths to study drug (entire study duration): None of the deaths were considered by the Investigators as related to HDP-CDV
- Cause of death (dose 100 mg BIW): Gut GVHD
- Cause of death (dose 200 mg BIW): GI bleed
- average increase in ALT from Baseline at time of maximum ALT increase (range across cohorts): 1.53 to 3.55 fold
- nephrotoxicity or myelotoxicity (regardless of dose and dosing frequency): no indication of nephrotoxicity or myelotoxicity
